Assay results from US20070160684A1, “Methods for increasing cancer cell chemosensitivity” (priority 2005, published 2007).
Blank lines part the entries; values can stand above or below the molecule they belong to.

Key:
[1] = system: H2AX Ser139 phosphorylation; experiment: Western analysis of H2AX phosphorylation in Pa-4 and Pa-4/HMGA2 cells; format: cell-based; settings: 4 mM caffeine or 10 μM NU7026 1 hour, then with 1 μM Dox 2 hours
Description: To ascertain whether HMGA2 effects Dox-induced ATM signaling activation, phosphorylation of ATM Ser1981 and H2AX Ser139 was assayed in the presence and absence of Dox (2 μM in ATM assays, 1 μM in H2AX assays). At various timepoints after Dox treatment, cell lysates were removed and subjected to Western analyses using monoclonal anti-phospho-ATM antibodies (Ser1981), polyclonal anti-ATM antibodies (Santa Cruz Biotechnology, Santa Cruz, Calif.), monoclonal anti-phospho-H2AX antibodies ([…]) (Upstate Cell Signaling), or anti-H2AX antibodies. Control Western analyses were performed using monoclonal anti-actin antibodies. […] HeLa and HeLa/HMGA2 cells
(§1) NU7026 (Calbiochem, San Diego, Calif.) was dissolved in DMSO at 5 mM and stored at −20° C. […] Cell lysates were removed and subjected to Western analyses using monoclonal anti-phospho-H2AX (Ser 139) antibodies. Control Western analyses were performed using monoclonal anti-actin antibodies.

ATR = ATR (Homo sapiens, UniProt Q13535); settings: reported (Veuger 2003; Willmore 2004); cited from earlier work
H2AX phosphorylation = experiment: Western analysis of H2AX phosphorylation in HS578T and HCC1419 cells; format: cell-based
Description: as §1
Experiments were repeated using HS578T and HCC1419 cells treated with 2 μM rather than 1 μM Dox.

DNA-PK = DNA-PK (Homo sapiens, UniProt P78527); settings: reported (Veuger 2003; Willmore 2004); cited from earlier work
ATM = ATM (Homo sapiens, UniProt Q13315); settings: reported (Veuger 2003; Willmore 2004); cited from earlier work
[2] = system: HeLa and HeLa/HMGA2 cells; experiment: MTT cell viability assay; format: cell-based; settings: increasing concentrations, 72 hours
Excerpt: HS578T, HCC1419, and CHO cells

Pa-4/HMGA2 cells = experiment: FACS analysis after caffeine and Dox (G2/M, sub-G1); format: cell-based
Description: Pa-4 and Pa-4/HMGA2 cells were seeded at 50-80% confluency in 35 mm dishes and serum starved overnight to synchronize cell cycle. […] Following treatment, cells were fixed in 70% ethanol overnight, stained with 20 μg/ml propidium iodide, and subjected to FACS analysis.
Apoptosis was quantified by assessing sub-G1 cell populations.

Pa-4 cells = settings: 4 mM caffeine 1 hour, then 1 μM Dox and 4 mM caffeine 48 hours
[3] = system: Pa-4 and Pa-4/HMGA2 cells; experiment: MTT cell viability assay; format: cell-based; settings: Dox 0-7 μM or irinotecan 0-50 μM
[4] = molecular target: Ku80 (80-kDa subunit of the DNA-PK holoenzyme), endogenous in HeLa and HeLa/HMGA2 cells (UniProt P13010); experiment: co-immunoprecipitation with anti-HA antibody from transiently transfected HeLa cells; reference set to 100%
[5] = molecular target: Ku80 (80-kDa subunit of the DNA-PK holoenzyme), endogenous in HeLa and HeLa/HMGA2 cells (UniProt P13010); experiment: co-immunoprecipitation with anti-HA antibody from transiently transfected HeLa cells, Western for Ku80, quantitated and normalized
[6] = system: HeLa, HeLa/HMGA2, HeLa/HMGA2(2K/R) cells; experiment: MTT cell viability assay; format: cell-based; settings: stable expression in HeLa cells, 72 hours
Description: FIG. 14: Association of HMGA2-dependent chemosensitization with HMGA2 SUMOylation. HeLa, HeLa/HMGA2, HeLa/HMGA2(2K/R) cells were subjected to treatment with increasing concentrations of Dox (upper panel) or cisplatin (lower panel) for 72 hours, as indicated. Cell viabilities were assessed using MTT assays. * denotes p<0.05; ** denotes p<0.01.
HMGA2 is a SUMOylation target (Cao, X. and Ann, D. K., unpublished observation). To investigate whether SUMOylation is involved in HMGA2-mediated chemosensitization, an HMGA2 mutant was constructed that carried Lysine to Arginine (Lys→Arg) point mutations at residues 66 and 67. These residues correspond to the SUMOyalation site (FIG. 13). The construct (HMGA2(2K/R)) was generated using previously described HA-HMGA2/pcDNA3.1 (Zentner 2001) as a template in conjunction with GeneEditor™ in vitro Site-Directed Mutagenesis System (Promega) and the mutagenesis primer set forth in SEQ ID NO:14. Desired mutations were confirmed by DNA sequencing analyses.

HeLa cells = experiment: MTT viability of Dox-treated HeLa cells transfected with HMGA2 constructs; format: cell-based; settings: transient transfection, Dox for 72 hours
Description: FIG. 19: Correlation between HMGA2 binding of Ku80 and chemosensitization towards Dox. HeLa cells were transfected with individual HMGA2 wild type and engineered constructs and allowed to recover overnight prior to reseeding for cell viability assay. Cells were treated with Dox for 72 hours and followed by MTT assays. ** denotes p<0.01.
To elucidate the relevance of HMGA2 complex formation with Ku80/Ku70, the viability of Dox-treated HeLa cells transfected with HMGA2 or its engineered mutants was examined. […] The augmented resistance to Dox, relative to that of vector-transfected HeLa cells, by HMGA2(Δ83-109) and HMGA2(4P/A) mutants may be due to protein-protein interactions arising from the remaining portion of HMGA2.

Ku80 = molecular target: T1, Ku80 (Homo sapiens, UniProt P13010); experiment: Co-immunoprecipitation of HMGA2 constructs with Ku80 in transfected HeLa cells; format: cell-based; settings: transient transfection of HeLa cells
T1 construct: Co-immunoprecipitation assays were performed following transient transfection of HeLa cells with these constructs; endogenous in cells; host or cells: HeLa, transiently transfected with HA-HMGA2 constructs
Excerpt: FIG. 18: Role of protein-protein and protein-DNA interactions in the HMGA/Ku80/Ku70 interaction. Individual wild type and engineered HMGA2 expression constructs was transfected into HeLa cells. The transfected cells were allowed to recover overnight in fresh medium prior to immunoprecipitation with an anti-HA antibody. Quantitation was done with BioRad Quantity One volume report program. After normalization with transfection efficiency and the expression level of HMGA2 and its mutant, percentage of Ku80/HMGA2 interaction is calculated by designating immunoprecipitated Ku80 with wild type HMGA2 as 100%.
To determine whether HMGA2 directly interacts with either subunit of the DNA-PK complex to dysregulate DNA-PK activation, co-immunoprecipitation assays were conducted using an anti-Ku70 antibody in HeLa and HeLa/HMGA2 cells. Cells were lysed for one hour in RIPA buffer (PBS, 1% NP40, 0.5% sodium deoxycholate, 0.1% SDS) supplemented with PMSF, aprotinin, and sodium orthovanadate immediately before use. The cell lysates were centrifuged at 10,000 rpm for 10 minutes and supernatants were collected. Protein concentrations were determined using Bradford protein assay. […] Samples were then analyzed by Western analyses. […]

Chain of Ku80 (80-kDa subunit of the DNA-PK holoenzyme), endogenous in HeLa and HeLa/HMGA2 cells (P13010 2-732 limits assumed): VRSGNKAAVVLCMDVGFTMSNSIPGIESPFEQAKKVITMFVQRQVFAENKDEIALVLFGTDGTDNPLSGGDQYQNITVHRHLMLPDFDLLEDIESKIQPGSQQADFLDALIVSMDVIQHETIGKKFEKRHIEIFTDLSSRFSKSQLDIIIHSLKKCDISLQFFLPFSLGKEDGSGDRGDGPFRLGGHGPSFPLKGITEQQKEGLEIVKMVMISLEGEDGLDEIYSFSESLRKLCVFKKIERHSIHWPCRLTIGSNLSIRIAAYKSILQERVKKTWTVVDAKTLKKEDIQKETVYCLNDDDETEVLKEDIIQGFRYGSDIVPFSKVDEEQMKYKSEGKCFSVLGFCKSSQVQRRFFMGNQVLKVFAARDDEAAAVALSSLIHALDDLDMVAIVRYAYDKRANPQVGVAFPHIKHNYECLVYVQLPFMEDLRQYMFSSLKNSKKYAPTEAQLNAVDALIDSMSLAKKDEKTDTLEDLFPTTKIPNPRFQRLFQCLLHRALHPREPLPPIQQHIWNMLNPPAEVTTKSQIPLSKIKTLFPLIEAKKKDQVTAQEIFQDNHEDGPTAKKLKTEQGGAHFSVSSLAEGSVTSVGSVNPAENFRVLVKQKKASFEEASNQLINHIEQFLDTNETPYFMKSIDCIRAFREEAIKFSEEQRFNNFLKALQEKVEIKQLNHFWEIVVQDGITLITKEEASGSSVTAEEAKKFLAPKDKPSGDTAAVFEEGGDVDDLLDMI
T1 sequence (P13010 2-732 limits assumed): as above
T1 sequence (P12956 2-609 partner limits assumed): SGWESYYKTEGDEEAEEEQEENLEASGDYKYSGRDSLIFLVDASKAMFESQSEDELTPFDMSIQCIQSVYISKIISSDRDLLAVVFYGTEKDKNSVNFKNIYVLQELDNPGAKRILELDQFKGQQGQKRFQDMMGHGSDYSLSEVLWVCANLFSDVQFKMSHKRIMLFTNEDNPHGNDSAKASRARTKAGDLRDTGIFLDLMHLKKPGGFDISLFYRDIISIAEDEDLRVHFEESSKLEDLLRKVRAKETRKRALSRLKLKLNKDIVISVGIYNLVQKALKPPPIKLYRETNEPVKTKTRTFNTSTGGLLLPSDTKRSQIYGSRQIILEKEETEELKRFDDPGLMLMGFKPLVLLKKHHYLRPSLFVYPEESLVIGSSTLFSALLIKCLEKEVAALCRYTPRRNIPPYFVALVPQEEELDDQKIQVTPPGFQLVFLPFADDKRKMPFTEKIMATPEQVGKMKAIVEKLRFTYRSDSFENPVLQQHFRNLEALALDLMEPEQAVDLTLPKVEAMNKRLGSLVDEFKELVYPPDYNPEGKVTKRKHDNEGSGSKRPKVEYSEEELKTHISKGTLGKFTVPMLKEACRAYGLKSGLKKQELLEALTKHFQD
Chain of ATM (Q13315 whole entry, species assumed): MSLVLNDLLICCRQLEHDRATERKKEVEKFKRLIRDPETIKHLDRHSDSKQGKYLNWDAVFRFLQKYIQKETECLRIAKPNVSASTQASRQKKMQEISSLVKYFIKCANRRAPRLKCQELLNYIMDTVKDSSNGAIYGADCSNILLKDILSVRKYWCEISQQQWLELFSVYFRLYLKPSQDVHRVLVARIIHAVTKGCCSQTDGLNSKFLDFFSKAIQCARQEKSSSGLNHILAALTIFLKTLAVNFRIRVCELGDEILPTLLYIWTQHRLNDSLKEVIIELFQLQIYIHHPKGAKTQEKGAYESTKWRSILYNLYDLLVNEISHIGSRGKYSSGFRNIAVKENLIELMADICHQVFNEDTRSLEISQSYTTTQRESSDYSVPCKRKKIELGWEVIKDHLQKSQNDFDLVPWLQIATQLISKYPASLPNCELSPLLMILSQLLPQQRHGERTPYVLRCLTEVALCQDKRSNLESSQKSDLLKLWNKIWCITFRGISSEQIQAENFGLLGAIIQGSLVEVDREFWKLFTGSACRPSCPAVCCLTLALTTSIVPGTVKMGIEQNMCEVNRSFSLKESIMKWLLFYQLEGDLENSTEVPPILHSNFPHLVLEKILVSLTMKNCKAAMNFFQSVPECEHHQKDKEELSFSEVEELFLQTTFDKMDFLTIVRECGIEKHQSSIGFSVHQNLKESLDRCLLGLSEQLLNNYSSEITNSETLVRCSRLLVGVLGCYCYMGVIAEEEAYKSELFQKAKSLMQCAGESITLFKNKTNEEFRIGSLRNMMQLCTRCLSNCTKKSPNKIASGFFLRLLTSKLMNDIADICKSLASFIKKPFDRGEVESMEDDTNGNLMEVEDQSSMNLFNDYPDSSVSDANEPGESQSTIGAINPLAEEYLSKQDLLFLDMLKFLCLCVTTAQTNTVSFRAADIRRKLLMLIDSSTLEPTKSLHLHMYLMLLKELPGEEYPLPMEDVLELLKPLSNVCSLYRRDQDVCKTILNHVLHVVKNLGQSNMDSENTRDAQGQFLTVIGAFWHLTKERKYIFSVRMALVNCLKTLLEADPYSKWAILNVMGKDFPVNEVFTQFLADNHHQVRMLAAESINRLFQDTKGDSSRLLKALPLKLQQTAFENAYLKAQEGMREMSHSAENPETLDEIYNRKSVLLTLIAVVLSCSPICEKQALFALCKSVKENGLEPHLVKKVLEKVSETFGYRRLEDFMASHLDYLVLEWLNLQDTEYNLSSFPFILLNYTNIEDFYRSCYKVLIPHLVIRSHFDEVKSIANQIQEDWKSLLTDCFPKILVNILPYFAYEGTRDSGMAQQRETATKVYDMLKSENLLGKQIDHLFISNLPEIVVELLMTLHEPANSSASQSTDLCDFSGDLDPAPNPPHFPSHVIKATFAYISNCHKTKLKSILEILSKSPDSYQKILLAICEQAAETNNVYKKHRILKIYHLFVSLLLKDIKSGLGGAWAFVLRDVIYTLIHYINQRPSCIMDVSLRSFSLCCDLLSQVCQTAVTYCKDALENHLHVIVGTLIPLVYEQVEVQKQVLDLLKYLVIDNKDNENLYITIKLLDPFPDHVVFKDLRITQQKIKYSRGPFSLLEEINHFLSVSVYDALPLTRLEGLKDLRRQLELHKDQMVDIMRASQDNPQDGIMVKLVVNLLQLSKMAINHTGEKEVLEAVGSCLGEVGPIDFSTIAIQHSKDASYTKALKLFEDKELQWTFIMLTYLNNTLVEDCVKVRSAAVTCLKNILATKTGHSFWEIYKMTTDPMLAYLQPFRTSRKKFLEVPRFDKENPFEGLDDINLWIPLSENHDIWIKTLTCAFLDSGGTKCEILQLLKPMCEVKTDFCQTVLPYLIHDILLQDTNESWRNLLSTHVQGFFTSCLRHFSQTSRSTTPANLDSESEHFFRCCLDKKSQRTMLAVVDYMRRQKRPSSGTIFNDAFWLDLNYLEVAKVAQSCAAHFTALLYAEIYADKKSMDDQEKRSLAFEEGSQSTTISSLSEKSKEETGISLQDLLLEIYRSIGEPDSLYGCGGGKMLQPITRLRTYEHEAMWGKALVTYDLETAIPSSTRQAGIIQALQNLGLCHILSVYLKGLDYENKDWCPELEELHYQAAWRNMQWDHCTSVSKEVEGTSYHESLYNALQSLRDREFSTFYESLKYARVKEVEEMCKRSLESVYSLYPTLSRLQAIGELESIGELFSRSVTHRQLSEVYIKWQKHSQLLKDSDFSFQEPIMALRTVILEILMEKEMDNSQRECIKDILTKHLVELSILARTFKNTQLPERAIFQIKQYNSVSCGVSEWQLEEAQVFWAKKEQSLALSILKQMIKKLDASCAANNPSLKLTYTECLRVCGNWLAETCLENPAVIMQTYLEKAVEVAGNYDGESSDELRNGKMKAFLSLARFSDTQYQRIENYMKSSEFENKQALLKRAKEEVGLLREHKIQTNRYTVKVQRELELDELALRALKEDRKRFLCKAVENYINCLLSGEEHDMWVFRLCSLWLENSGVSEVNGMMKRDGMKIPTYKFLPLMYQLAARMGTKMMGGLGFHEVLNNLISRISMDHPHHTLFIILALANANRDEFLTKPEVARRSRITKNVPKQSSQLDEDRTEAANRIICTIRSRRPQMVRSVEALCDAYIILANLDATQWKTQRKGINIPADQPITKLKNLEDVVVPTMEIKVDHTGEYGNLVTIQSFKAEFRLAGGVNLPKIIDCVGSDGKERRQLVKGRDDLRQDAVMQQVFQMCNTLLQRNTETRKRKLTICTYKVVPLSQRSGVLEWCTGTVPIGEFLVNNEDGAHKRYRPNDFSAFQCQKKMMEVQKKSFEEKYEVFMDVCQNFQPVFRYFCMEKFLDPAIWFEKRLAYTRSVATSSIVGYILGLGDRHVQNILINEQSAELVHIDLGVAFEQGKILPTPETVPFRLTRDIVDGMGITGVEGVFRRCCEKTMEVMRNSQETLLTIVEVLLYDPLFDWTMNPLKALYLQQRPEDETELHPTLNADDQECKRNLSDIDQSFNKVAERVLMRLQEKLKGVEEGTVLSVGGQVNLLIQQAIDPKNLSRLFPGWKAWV

Molecule: O=c1cc(N2CCOCC2)oc2c1ccc1ccccc12 [NU7026]
effect of pre-treatment on basal or Dox-induced H2AX phosphorylation ([1]; Pa-4/HMGA2 cells): little or no effect
effect of pre-treatment on Dox-induced H2AX phosphorylation ([1]; Pa-4 cells): attenuated
activity against ATR (ATR): inactive
effect of pre-treatment on Dox-induced H2AX phosphorylation (H2AX phosphorylation; HCC1419 cells, 2 μM Dox): downregulated
effect of pre-treatment on H2AX phosphorylation (H2AX phosphorylation; HS578T cells, with or without 2 μM Dox): did not decrease H2AX phosphorylation in either the presence or absence of Dox treatment
selectivity for DNA-PK (DNA-PK): highly selective for DNA-PK
activity against ATM (ATM): inactive

Molecule: CC(=O)O[C@H]1C(=O)[C@@]2(C)[C@H]([C@H](OC(=O)c3ccccc3)[C@]3(O)C[C@H](OC(=O)[C@H](O)[C@@H](NC(=O)c4ccccc4)c4ccccc4)C(C)=C1C3(C)C)[C@]1(OC(C)=O)CO[C@@H]1C[C@@H]2O [Taxol]
Taxol-induced cell growth inhibition, HeLa versus HeLa/HMGA2 [2]: no substantial difference in the response to Taxol between HeLa and HeLa/HMGA2 cells

Molecule: Cn1c(=O)c2c(ncn2C)n(C)c1=O [caffeine]
cell cycle distribution / cells in G2/M, single agent (Pa-4/HMGA2 cells; 4 mM caffeine or 1 μM Dox, 48 hours): decreased the number of cells in G2/M
apoptosis with both caffeine and Dox (Pa-4/HMGA2 cells; caffeine with Dox): apoptosis levels greater than those observed after treatment with caffeine or Dox alone
effect on Dox-induced G2/M arrest (Pa-4 cells): greatly reduced Dox-induced G2/M arrest

Molecule: CCc1c2c(nc3ccc(OC(=O)N4CCC(N5CCCCC5)CC4)cc13)-c1cc3c(c(=O)n1C2)COC(=O)[C@]3(O)CC [irinotecan]
difference in decrease of viability between Pa-4/HMGA2 and Pa-4 cells ([3]; 72 hours): little difference observed between the two cell types
cell viability / growth inhibition ([3]; 72 hours after treatment): dose-dependent growth inhibition in both cell types

percentage of Ku80/HMGA2 interaction [4]: 100%
Molecule: HA-HMGA2 (HA-tagged wild-type high-mobility group A2 protein expressed from pcDNA3.1/HA-HMGA2 in HeLa cells) (from UniProt P52926 1-109)

decrease of the interaction with Ku80 against wild-type HMGA2 [5]: > 70%
Molecule: HA-HMGA2(Δ66-109) (from UniProt P52926 1-65)

decrease of the interaction with Ku80 against wild-type HMGA2 [5]: > 50%
Molecule: HA-HMGA2(Δ83-109) (from UniProt P52926 1-82)

B1: HMGA2(2K/R): SUMOylation-defective HMGA2 mutant with Lys→Arg point mutations at residues 66 and 67 (protein, UniProt P52926 2-109, looked up, variant K66R K67R)
High mobility group protein …: SARGEGAGQPSTSAQGQPAAPAPQKRGRGRPRKQQQEPTGEPSPKRPRGRPKGSKNKSPSKAAQRRAEATGEKRPRGRPRKWPQQVVQKKPAQEETEETSSQESAEED
effect on cytotoxicity elicited by Dox [6]: partially reversed the cytotoxicity
effect on cytotoxicity elicited by cisplatin [6]: partially reversed the cytotoxicity

B2: HMGA2(Δ1-24): truncated HMGA2 carrying deletion of the N-terminus (protein, UniProt P52926 25-109, looked up, fragment)
chain: QKRGRGRPRKQQQEPTGEPSPKRPRGRPKGSKNKSPSKAAQKKAEATGEKRPRGRPRKWPQQVVQKKPAQEETEETSSQESAEED
modifications: HA tag
notes: truncated HMGA2 carrying deletion of the N-terminus
sensitivity of transfected HeLa cells to Dox (HeLa cells): enhanced the sensitivity of HeLa cells to Dox
ability to interact with Ku80 (Ku80): retained the full ability to interact with Ku80

B3: HMGA2(Δ83-109): truncated HMGA2 carrying deletion of the C-terminus (protein, UniProt P52926 1-82, looked up, fragment)
chain: MSARGEGAGQPSTSAQGQPAAPAPQKRGRGRPRKQQQEPTGEPSPKRPRGRPKGSKNKSPSKAAQKKAEATGEKRPRGRPRK
modifications: HA tag
notes: truncated HMGA2 carrying deletion of the C-terminus
sensitivity of transfected HeLa cells to Dox (HeLa cells): relatively greater resistance to Dox-treatment

B4: HMGA2(4P/A): HMGA2 mutant with four Pro→Ala mutations at amino acid positions 48, 52, 76, and 80 (protein)
chain: MSARGEGAGQPSTSAQGQPAAPAPQKRGRGRPRKQQQEPTGEPSPKRARGRAKGSKNKSPSKAAQKKAEATGEKRARGRARKWPQQVVQKKPAQEETEETSSQESAEED
modifications: left off: small tags and cut ends
sensitivity of transfected HeLa cells to Dox (HeLa cells): relatively greater resistance to Dox-treatment
ability to interact with Ku80 (Ku80): almost completely abrogated the binding of HMGA2 to Ku80
